Assays:
[1] = Half life in Beagle dog at 10 mg/kg, po measured upto 24 hrs by LC-MS/MS analysis; type: ADME, organism-based, Canis lupus familiaris; details: in vivo
NCI-H23 = assay: Antiproliferative activity against human NCI-H23 cells assessed as reduction in cell viability after 4 days by CellTiter-Glo assay; details: Homo sapiens, NCI-H23, 96 h
[2] = Efflux ratio of permeability from basolateral to apical side over apical to basolateral side in human Caco-2 cells; type: ADME, cell-based
[3] = target: T1, Mitogen-activated protein kinase kinase kinase 19 (Homo sapiens) (UniProt Q56UN5); assay: Inhibition of YSK4 (unknown origin) at 1 uM relative to control
T1 sequence (whole entry): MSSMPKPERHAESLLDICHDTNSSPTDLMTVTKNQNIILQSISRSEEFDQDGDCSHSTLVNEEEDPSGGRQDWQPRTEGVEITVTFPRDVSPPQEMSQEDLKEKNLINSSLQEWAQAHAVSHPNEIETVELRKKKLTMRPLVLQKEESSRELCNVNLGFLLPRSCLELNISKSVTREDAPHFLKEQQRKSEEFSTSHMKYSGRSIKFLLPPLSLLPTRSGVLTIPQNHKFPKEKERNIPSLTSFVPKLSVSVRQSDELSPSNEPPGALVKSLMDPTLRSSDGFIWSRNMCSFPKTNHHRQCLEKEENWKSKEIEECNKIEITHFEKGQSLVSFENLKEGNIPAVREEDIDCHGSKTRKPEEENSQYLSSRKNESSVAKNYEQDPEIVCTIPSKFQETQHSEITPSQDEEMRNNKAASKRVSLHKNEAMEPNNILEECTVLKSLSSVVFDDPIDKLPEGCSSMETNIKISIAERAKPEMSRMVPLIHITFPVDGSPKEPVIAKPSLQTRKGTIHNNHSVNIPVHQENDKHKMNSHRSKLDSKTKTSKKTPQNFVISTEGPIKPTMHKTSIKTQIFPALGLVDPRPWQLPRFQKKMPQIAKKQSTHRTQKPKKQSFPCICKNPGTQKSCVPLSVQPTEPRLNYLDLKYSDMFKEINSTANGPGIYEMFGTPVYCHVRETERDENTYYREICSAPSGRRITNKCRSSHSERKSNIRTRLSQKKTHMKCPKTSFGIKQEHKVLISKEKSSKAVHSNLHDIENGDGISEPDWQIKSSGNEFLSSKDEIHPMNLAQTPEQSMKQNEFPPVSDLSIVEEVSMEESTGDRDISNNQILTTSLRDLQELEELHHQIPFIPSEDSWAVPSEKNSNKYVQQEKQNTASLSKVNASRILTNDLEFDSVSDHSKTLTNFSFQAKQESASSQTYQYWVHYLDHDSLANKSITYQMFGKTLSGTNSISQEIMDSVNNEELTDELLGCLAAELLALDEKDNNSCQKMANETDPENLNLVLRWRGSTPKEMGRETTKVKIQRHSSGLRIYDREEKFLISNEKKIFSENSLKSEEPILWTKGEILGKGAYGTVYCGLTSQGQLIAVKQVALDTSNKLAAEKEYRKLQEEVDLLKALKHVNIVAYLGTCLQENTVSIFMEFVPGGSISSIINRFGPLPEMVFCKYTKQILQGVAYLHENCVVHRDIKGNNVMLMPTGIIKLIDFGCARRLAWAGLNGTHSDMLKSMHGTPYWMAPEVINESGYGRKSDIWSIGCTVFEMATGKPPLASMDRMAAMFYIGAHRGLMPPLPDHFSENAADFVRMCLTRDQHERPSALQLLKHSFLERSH

[4] = AUC(0 to 24 hrs) in mouse at 60 mg/kg, po; type: ADME, organism-based; parameters: time < 24 hr, route oral, dose 60 mg/kg; details: in vivo
[5] = target: Serine/threonine-protein kinase PLK3 (Homo sapiens, UniProt Q9H4B4); assay: Inhibition of PLK3 (unknown origin)
Chain of Serine/threonine-protein kinase PLK3 (Q9H4B4 whole entry): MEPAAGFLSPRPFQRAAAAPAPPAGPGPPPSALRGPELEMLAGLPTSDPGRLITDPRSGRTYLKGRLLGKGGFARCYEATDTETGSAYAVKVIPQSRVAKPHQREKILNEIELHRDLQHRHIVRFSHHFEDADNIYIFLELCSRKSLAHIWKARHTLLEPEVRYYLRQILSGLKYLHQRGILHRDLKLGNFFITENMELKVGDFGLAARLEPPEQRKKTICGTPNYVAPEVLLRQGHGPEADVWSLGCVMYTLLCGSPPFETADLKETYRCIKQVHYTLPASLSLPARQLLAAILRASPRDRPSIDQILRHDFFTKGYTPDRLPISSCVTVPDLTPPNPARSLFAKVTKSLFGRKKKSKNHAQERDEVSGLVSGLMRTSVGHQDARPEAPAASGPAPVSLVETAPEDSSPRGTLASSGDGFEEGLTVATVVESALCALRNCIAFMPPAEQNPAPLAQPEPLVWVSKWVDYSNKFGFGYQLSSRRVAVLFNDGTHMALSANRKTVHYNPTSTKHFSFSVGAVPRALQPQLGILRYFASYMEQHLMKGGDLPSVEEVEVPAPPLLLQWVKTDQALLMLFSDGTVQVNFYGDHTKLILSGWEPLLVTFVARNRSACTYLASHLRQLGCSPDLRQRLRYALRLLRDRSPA

[6] = AUC(0 to 24 hrs) in rat at 60 mg/kg, po; type: ADME, organism-based; parameters: time < 24 hr, route oral, dose 60 mg/kg; details: in vivo
[7] = Permeability of the compound across basolateral to apical side in human Caco-2 cells; type: ADME, cell-based; details: read-out: permeability
[8] = AUC in mouse plasma at 80 mg/kg, po administered once daily for 28 days; type: ADME, organism-based; parameters: time 28 day, dose 80 mg/kg
[9] = target: Voltage-gated inwardly rectifying potassium channel KCNH2 (Homo sapiens, UniProt Q12809); assay: Inhibition of human ERG
Chain of Voltage-gated inwardly rectifying potassium channel KCNH2 (Q12809 whole entry): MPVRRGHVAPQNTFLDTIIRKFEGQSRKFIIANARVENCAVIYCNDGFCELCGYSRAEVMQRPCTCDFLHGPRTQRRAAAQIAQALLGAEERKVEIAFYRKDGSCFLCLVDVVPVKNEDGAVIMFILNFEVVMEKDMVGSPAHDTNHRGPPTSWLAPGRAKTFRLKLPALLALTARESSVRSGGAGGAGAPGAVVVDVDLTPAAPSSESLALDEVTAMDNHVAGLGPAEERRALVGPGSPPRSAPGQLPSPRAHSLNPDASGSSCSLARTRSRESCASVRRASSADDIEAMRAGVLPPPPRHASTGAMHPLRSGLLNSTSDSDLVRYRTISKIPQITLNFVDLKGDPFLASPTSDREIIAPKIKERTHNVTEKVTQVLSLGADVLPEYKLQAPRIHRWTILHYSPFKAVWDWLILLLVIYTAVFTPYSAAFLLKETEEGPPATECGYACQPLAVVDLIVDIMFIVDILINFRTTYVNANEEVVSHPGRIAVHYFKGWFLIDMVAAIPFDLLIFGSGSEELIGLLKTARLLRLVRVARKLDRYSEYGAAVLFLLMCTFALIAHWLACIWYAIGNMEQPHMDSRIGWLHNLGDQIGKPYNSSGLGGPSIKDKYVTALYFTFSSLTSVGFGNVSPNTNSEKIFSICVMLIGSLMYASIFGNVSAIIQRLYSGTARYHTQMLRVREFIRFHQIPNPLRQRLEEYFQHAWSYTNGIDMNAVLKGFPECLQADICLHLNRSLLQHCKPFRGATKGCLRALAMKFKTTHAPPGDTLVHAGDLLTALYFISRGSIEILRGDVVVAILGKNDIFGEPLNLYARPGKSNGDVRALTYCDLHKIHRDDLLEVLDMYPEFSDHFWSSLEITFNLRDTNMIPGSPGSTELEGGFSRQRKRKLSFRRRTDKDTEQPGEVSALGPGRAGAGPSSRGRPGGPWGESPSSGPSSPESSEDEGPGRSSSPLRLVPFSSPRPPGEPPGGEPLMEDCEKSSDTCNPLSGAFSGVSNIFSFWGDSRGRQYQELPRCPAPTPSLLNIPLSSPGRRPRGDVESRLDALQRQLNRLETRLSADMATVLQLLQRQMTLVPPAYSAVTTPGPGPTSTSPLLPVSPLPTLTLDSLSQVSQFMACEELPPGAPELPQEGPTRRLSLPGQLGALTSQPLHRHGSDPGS

[10] = AUC in Beagle dog at 3 mg/kg, iv measured upto 24 hrs by LC-MS/MS analysis; type: ADME, organism-based, Canis lupus familiaris; parameters: route intravenous, dose 3 mg/kg, time <=24; details: in vivo
[11] = target: Serine/threonine-protein kinase PLK1 (Homo sapiens, UniProt P53350); assay: Inhibition of PLK1 (unknown origin)
Chain of Serine/threonine-protein kinase PLK1 (P53350 whole entry): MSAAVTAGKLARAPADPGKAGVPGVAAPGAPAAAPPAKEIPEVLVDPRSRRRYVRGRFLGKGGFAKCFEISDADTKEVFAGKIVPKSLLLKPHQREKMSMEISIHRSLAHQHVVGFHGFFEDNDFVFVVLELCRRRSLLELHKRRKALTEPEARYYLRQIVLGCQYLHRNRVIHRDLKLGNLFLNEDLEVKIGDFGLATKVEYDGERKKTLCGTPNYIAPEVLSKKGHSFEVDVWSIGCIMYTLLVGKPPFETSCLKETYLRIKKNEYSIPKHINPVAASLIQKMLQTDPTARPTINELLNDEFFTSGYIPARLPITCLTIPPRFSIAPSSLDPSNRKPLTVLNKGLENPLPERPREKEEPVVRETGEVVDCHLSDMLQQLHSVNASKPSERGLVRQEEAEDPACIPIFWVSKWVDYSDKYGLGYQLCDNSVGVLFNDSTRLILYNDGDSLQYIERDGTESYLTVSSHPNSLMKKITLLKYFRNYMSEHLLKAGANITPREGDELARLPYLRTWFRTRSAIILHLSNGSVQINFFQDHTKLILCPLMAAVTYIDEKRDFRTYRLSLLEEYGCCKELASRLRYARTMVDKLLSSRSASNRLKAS

half-life [1]: 2.3 h
IC50 (NCI-H23): 103 nM
efflux ratio [2]: 7
inhibition [3]: > 90%
AUC(0-t) at 24 h [4]: 32 µM·h
IC50 [5]: 70 nM
AUC(0-t) at 24 h [6]: 27 µM·h
Papp B→A [7]: 25.5 ×10⁻⁶ cm/s
AUC at 672 h [8]: 45 µM·h
AUC at 24 h [10]: 2.1 µM·h
IC50 [11]: 227 nM
Compound: C=CCn1c(=O)c2cnc(Nc3ccc(N4CCN(C)CC4)cc3)nc2n1-c1ccc2c(n1)C(O)(CC)CC2 (racemic)
IC50 [9]: > 30000 nM

From ChEMBL document CHEMBL4842364 (J Med Chem, 2021)
